Assay results as given in article PMC6017655, “In Silico and in Vitro-Guided Identification of Inhibitors of Alkylquinolone-Dependent Quorum Sensing in Pseudomonas aeruginosa” (Molecules : A Journal of Synthetic Chemistry and Natural …, 2018).

How the values were obtained:
[1] = test system: PA14 biofilms; experiment: Biofilm assay on glass coverslips, GFP-labelled PA14; assay type: cell-based, Pseudomonas aeruginosa
Method: (§1) One of the clinical challenges of P. aeruginosa infections is the difficulty associated with the effective treatment of biofilms due to their high resistance to antibiotics. […] The effect of Ia, with or without tobramycin, on PA14 and PAO1-L biofilms grown on glass coverslips, was determined. […] The experiment was performed using green fluorescent labelled (GFP)-labelled PAO1-L and PA14 strains, grown under four different conditions: (i) no treatment (control); (ii) compound Ia at 8 µM in PA14 and 34 µM in PAO1-L (concentrations equal to 3× IC50); (iii) tobramycin at 100 µg/mL; (iv) Ia and tobramycin, at the same concentrations as (ii) and (iii).
(§2) Biofilms were cultivated on borosilicate glass coverslips in petri dishes. P. aeruginosa strains, PAO1-L and PA14, were labelled by transformation with plasmid pMMG, which constitutively expresses GFP from the Ptac promoter. Labelled strains were grown at 37 °C, for 16 h, in 2 mL RPMI-1640 (Lonza, Slough, UK), supplemented with 20 mM D-glucose (Sigma–Aldrich, Dorset, UK) and 2 µM FeCl3 (Sigma–Aldrich, Dorset, UK). Cultures were diluted 1:100 in fresh medium and allowed to grow for a further 4 h, or until an OD600 of 0.5 was reached. The mid-logarithmic cultures were diluted to an OD600 of 0.01 in 25 mL RPMI, supplemented with glucose and FeCl3, and inoculated into petri dishes containing UV sterilised borosilicate glass coverslips (22 × 22 mm, thickness no1) (VWR, Lutterworth, UK). Bacterial cells were seeded at 37 °C under static conditions for 1.5 h, and compound Ia was added to the culture at a concentration of 34 µM for P. aeruginosa PAO1-L and 8 µM for PA14 before dishes were moved to a shaker at 60 rpm and 37 °C for 15 h to form mature biofilms. Tobramycin and propidium iodide were added to the 15 h-old cultures at concentrations of 100 µg/mL and 2 µM, respectively, followed by further incubation for 4 h. Coverslips were examined under a Laser Scanning Fluorescent Microscope (LSM2, Zeiss, Oberkochen, Germany). Biofilms were visualised using egfp mode at an excitation wavelength of 488nm. Imaging was carried out using Zen 2011 imaging software (Zeiss, Oberkochen, Germany). A total of 5 Z-stacked images were collected per coverslip. Sampling was conducted at random from the central portion of each coverslip. Biomass was calculated using Image J (NIH, Bethesda, MD, USA) and Comstat 2.1. Software package (www.comstat.dk, lyngby, Denmark).

[2] = test system: PAO1-L biofilms; experiment: Biofilm assay on glass coverslips, GFP-labelled PAO1-L; assay type: cell-based, Pseudomonas aeruginosa
Method: as §1, §2

[3] = Ia 8 µM, tobramycin 100 µg/mL for 4 h
[4] = Ia 34 µM, tobramycin 100 µg/mL for 4 h

Q: `O=CN1N=C(c2ccccc2)CC1c1cccc(Nc2ccnc3cc(Cl)ccc23)c1` (stereo not drawn) [Ia] was tested. Which “Sensitisation of biofilm to tobramycin / effect of combined treatment, PA14” value ([1]; Ia 8 µM plus tobramycin 100 µg/mL for 4 h) did it give?
A: sensitized the biofilm to tobramycin

Q: What about the “Effect on biofilm biomass, PA14” value [1, 3] of the same compound?
A: reducing biomass

Q: What about the “Effect on cell viability in biofilm (propidium iodide), PA14” value [1, 3] of the same compound?
A: little impact on cell viability

Q: And the “Sensitisation of biofilm to tobramycin / effect of combined treatment, PAO1-L” value ([2]; Ia 34 µM plus tobramycin 100 µg/mL for 4 h)?
A: sensitized the biofilm to tobramycin

Q: What about the “Effect on biofilm biomass, PAO1-L” value [2, 4] of the same compound?
A: reducing biomass

Q: And the “Effect on cell viability in biofilm (propidium iodide), PAO1-L” value [2, 4]?
A: little impact on cell viability
